Assays:
Format in all cases: in vivo
[1] = test system: Japanese pear (variety "Shinsei") fruit; experiment: Quality deterioration of Japanese pear (Shinsei) fruit after storage, Example 2; conditions: 1 ppm, after storage 25 degrees C 2 weeks
Description: Using a Japanese pear (variety “Shinsei”) fruit (6 fruits were used per group) as an agricultural product, the following experiment was performed.
(§1) 1) A fruit and 1-methylcyclopropene (concentration 1 ppm in a chamber) were placed into a sealed chamber, and contact-treated for 16 hours under a normal pressure.
2) A fruit was placed into a sealed chamber, and a pressure in the chamber was reduced to 12.5 kPa. Subsequently, 1-methylcyclopropene was placed therein to the concentration in the chamber of 1 ppm, and contact-treated for 1 minute or 10 minutes under the reduced pressure (12.5 kPa).
(§2) The fruit which had been subjected to treatment of the above-mentioned 1) or 2) was stored at 25 degrees C for 2 weeks, and hardness of flesh and pH of a fruit juice which is an index for the content of an acid were measured. In addition, browning of flesh and fruit core, which is an index for an extent of storage disorder was assessed by naked eyes. Contact treatment of the above-mentioned 1) or 2) was performed on a day of harvesting a fruit. In addition, also regarding a fruit undergoing no treatment of 1) or 2) (non-treatment), similar storage was performed, and the above-mentioned index was measured and assessed. Further, regarding non-treated fruit, the above-mentioned index before storage was also measured and assessed. Different alpha characters in the same column after storage indicate that a significant difference was recognized at a risk rate of 5% (multiple range test of Newman-Keuls).

[2] = test system: Japanese pear (variety "Kosui") fruit; experiment: Quality deterioration of Japanese pear (Kosui) fruit after storage, Example 3; conditions: 1 ppm, after storage 25 degrees C 2 weeks
Description: Using a Japanese pear (variety “Kosui”) fruit (6 fruits were used per group) as an agricultural product, the following experiment was performed.
as §1
(§3) 2) A fruit was placed into a sealed chamber, and a pressure in the chamber was reduced to 25.0 kPa. Subsequently, 1-methylcyclopropene was placed therein to the concentration in the chamber of 1 ppm, and contact-treated for 1 minute under the reduced pressure (25.0 kPa).
as §2, with “addition,” for “addition, browning of flesh and fruit core, which is an index for”, “tasting.” for “naked eyes.”, “Table 3” for “the same column after storage”

[3] = test system: peach (variety "Akatsuki") fruit; experiment: Quality deterioration of peach (Akatsuki) fruit after storage, Example 9; conditions: 1 ppm, after storage 25 degrees C 5 days, treated day after harvest
Description: Using a peach (variety “Akatsuki”) fruit (6 fruits were used per group) as an agricultural product, the following experiment was performed.
as §3, with “1)” for “2)”, “kPa). Then, the pressure was returned to a normal pressure, and contact treatment was carried out for 12 hours while the concentration of 1-methylcyclopropene in the chamber was maintained at 1 ppm.” for “kPa).”
2) A fruit was placed into a sealed chamber, and a pressure in the chamber was reduced to 25.0 kPa. Subsequently, 1-methylcyclopropene was placed therein to the concentration in the chamber of 1 ppm, and contact-treated for 12 hours under the reduced pressure (25.0 kPa).
The fruit which had been subjected to treatment of the above-mentioned 1) or 2) was stored at 25 degrees C for 5 days, and hardness of flesh was measured. […] In addition, also regarding a fruit undergoing no treatment of 1) or 2) (non-treatment), similar storage was performed, and the above-mentioned index was measured. Further, regarding a non-treated fruit, the above-mentioned index before storage was also measured. […]

[4] = test system: cut flower of a carnation (variety "Rosybabara"); experiment: Withering of carnation cut flower after storage, Example 10; conditions: 1 ppm, after storage 20 degrees C 14 days, average score of 5 plants (0=healthy)
Description: Using a cut flower (5 ornamental plants were used per group) of a carnation (variety “Rosybabara”) as an agricultural product, the following experiment was performed. […]
2) An ornamental plant was placed into a sealed chamber, and a pressure in the chamber was reduced to 12.5 kPa. Subsequently, 1-methylcyclopropene was placed therein to the concentration in the chamber of 1 ppm, and contact-treated for 1 minute under the reduced pressure (12.5 kPa).
3) An ornamental plant was placed in a sealed chamber. Subsequently, a pressure in the chamber was reduced to 12.5 kPa and the ornamental plant was kept in the chamber under the reduced pressure for 1 minute.
An ornamental plant which had been subjected to treatment of the above-mentioned 1), 2) or 3) was stored at 20 degrees C for 14days, and an extent of withering of an ornamental plant was assessed by naked eyes. Assessment criteria were 4 stages; 0=healthy, 1=slight withering, 2=intermediate withering, […], and an average of assessment in 5 ornamental plants was calculated. Note that the treatment above-mentioned 1), 2) or 3) was performed on a day of harvesting an ornamental plant. In addition, also regarding an ornamental plant undergoing no treatment of 1), 2) or 3) (non-treatment), the similar storage was performed, and the above-mentioned index was measured.

[5] = Reduced pressure (12.5 kPa) 1 minute
[6] = Reduced pressure (12.5 kPa) 10 minutes
[7] = Reduced pressure (25.0 kPa) 1 minute

## CC1=CC1 [1-MCP, 1-methylcyclopropene]
[1]; Normal pressure 16 hours
  Hardness of flesh: 22.74c N
  Presence or absence of browning: Absence
  pH of fruit juice: 4.92a
[1]; [5]
  Hardness of flesh: 18.72b N
  Presence or absence of browning: Absence
  pH of fruit juice: 4.90a
[1]; [6]
  Hardness of flesh: 22.25c N
  Presence or absence of browning: Absence
  pH of fruit juice: 5.00ab
[2]; Normal pressure 16 hours
  Hardness of flesh: 22.44 N
  Tasting: Better
  pH of fruit juice: 5.22a
[2]; [7]
  Hardness of flesh: 21.36 N
  Tasting: Better
  pH of fruit juice: 5.57b
[3]; Normal pressure 12 hours after reduced pressure (25.0 kPa) 1 minute
  Hardness of flesh: 4.39a N
[3]; Reduced pressure (25.0 kPa) 12 hours
  Hardness of flesh: 7.11b N
[4]; Normal pressure 1 hour
  Extent of withering: 0.8
[4]; Normal pressure 24 hours
  Extent of withering: 0.4
[4]; [5]
  Extent of withering: 0.4
